According to patent US9605064B2, “Methods and compositions for treatment of skin disorders” (AbbVie Biotechnology Ltd, priority 2006, dated 2017):

Legend:
[1] = test system: patients with moderate to severe chronic plaque psoriasis; assay: PASI response, CHAMPION 16-week Phase III trial vs methotrexate and placebo; assay type: in vivo, human; conditions: ITT; for PASI 75 Response Rates, % Patients / PASI 90 Response Rates, % Patients: missing PASI = non-responder
Description: (§1) Analytical methods included the following: • Intention-to-treat analyses were performed for all randomized patients • Missing data were analyzed using non-responder imputation (NRI) • PASI 75 at Week 16 (primary endpoint) was analyzed using adjusted Cochran-Mantel-Haenszel test.

[2] = test system: patients with moderate to severe chronic plaque psoriasis; assay: PASI response, open-label extension of CHAMPION (methotrexate to adalimumab transition); assay type: in vivo, human; conditions: prior to starting adalimumab, after 16 weeks of methotrexate in CHAMPION; 95 patients
[3] = test system: patients with moderate to severe chronic plaque psoriasis; assay: PGA, CHAMPION 16-week Phase III trial; assay type: in vivo, human; conditions: ITT, missing PGA = not achieving
Description: as §1

[4] = test system: patients with moderate to severe chronic plaque psoriasis; assay: Adverse events, CHAMPION 16-week Phase III trial; conditions: 16-week study
Description: (§2) The study was a multi-center, 16-week, randomized controlled Phase III trial. The main inclusion criteria included: • Clinical diagnosis of psoriasis for ≧1 year • Affected body surface area (BSA)≧10% • Psoriasis Area and Severity Index (PASI)≧10 The main exclusion criteria was previous use of MTX or systemic anti-TNF therapy.

[5] = test system: patients with moderate to severe chronic plaque psoriasis; conditions: human, in vivo, 16 weeks
Description: as §2

[6] = MTX N = 110, Adalimumab N = 107

SMILES: CN(Cc1cnc2nc(N)nc(N)c2n1)c1ccc(C(=O)N[C@@H](CCC(=O)O)C(=O)O)cc1 [methotrexate, reference compound]
- PASI 75 Response Rates, % Patients ([1]; Week 4): 3%
- PASI 90 Response Rates, % Patients ([1]; Week 4): 1%
- PASI 75 Response Rates, % Patients ([1]; Week 8): 9%
- PASI 90 Response Rates, % Patients ([1]; Week 8): 3%
- PASI 75 Response Rates, % Patients ([1]; Week 12): 25%
- PASI 90 Response Rates, % Patients ([1]; Week 12): 9%
- PASI 75 ([1]; Week 16, NRI): 36%
- PASI 75 Response Rates, % Patients ([1]; Week 16): 36%
- PASI 90 Response Rates, % Patients ([1]; Week 16): 14%
- PASI 75 Response Rates, % Patients ([1]; Week 16, listed as MTX): 35.5%
- PASI 90 Response Rates, % Patients ([1]; Week 16, listed as MTX): 13.6%
- PASI 50 response rate ([1]; Week 16 of CHAMPION, NRI): 61.8%
- PASI 100 response rate ([1]; Week 16 of CHAMPION, NRI): 7.3%
- PASI 75 response rate [2]: 28%
- PASI 90 response rate [2]: 14%
- PASI 100 response rate [2]: 5%
- PGA “Clear” or “Minimal” Responses, % Patients ([3]; Week 4): 1%
- PGA “Clear” or “Minimal” Responses, % Patients ([3]; Week 8): 3%
- PGA “Clear” or “Minimal” Responses, % Patients ([3]; Week 12): 9%
- PGA “Clear” or “Minimal” Responses, % Patients ([3]; Week 16): 14%
- Any AE [4, 6]: 89 (81) n (%)
- Any AE leading to discontinuation [4, 6]: 6 (6) n (%)
- Any SAE [4, 6]: 1 (1) n (%)
- Any infectious AE [4, 6]: 46 (42) n (%)
- Any infectious SAE [4, 6]: 0 (0) n (%)
- Arthralgia ([4]; common AE in ≧5% of patients): 5 (5) n (%)
- Gamma-Glutamyltransferase Increased ([4]; common AE in ≧5% of patients): 0 (0) n (%)
- Headache ([4]; common AE in ≧5% of patients): 12 (11) n (%)
- Nasopharyngitis ([4]; common AE in ≧5% of patients): 26 (24) n (%)
- Nausea ([4]; common AE in ≧5% of patients): 8 (7) n (%)
- Pruritus ([4]; common AE in ≧5% of patients): 2 (2) n (%)
- Rhinitis ([4]; common AE in ≧5% of patients): 4 (4) n (%)
- Rhinorrhea ([4]; common AE in ≧5% of patients): 0 (0) n (%)
- Viral Infection [5]: 6 (6) n (%)
